Experimental data: US20030114388A1, “Auxiliary agents for ophthalmic operation” (priority 2000, published 2003)

System: intraoperative bleeding in a patient suffering from diabetic retinopathy with increased intrinsic coagulation tendency
Assay: Systemic drip infusion of argatroban during ophthalmic operation in a patient with diabetic retinopathy (Example 1)
Assay type: in vivo
Settings: one patient
Description: The present invention will be more specifically explained by referring to an example. However, as for as within the gist of the present invention, the present invention is not limited to the following example. As argatroban in the following example, a drug commercially available as the tradename “Slonnon” was used.
The patient was a youth suffering from diabetic retinopathy with increased intrinsic coagulation tendency. […] Argatroban 10 mg as one ample was added to a drip infusion (specify ingredients, and a tradename and name of a manufacturing company if commercially available) and systemically administered to the patient from the beginning of the operation. The operation was completed for 2 hours.
The above patient was a youth suffering from diabetic retinopathy with increased intrinsic coagulation tendency, and if treated under an ordinary operation, intraoperative bleedings would have expected to be easy clotting and caused operative difficulties.

[1] = argatroban 10 mg drip infusion during operation

CC1CNc2c(cccc2S(=O)(=O)NC(CCCNC(=N)N)C(=O)N2CCC(C)CC2C(=O)O)C1 (mixture of isomers) [argatroban, (2R,4R)-4-methyl-1-[N^2((RS)-3-methyl-1,2,3,4-tetrahydro-8-quinolinesulfonyl)-L-arginyl]-2-piperidinecarboxylic acid monohydrate]
abnormal bleeding tendency [1]: No abnormal bleeding tendency was not observed | ease of treatment of intraoperative bleeding [1]: treatment of intraoperative bleeding became easier | removal of intraoperative bleedings (argatroban 10 mg drip infusion, passive suction using a back flash needle): successfully removed by passive suction using a back flash needle | preretinal clotting mass formation from intraoperative bleedings (argatroban 10 mg in drip infusion, systemic, from beginning of operation, 2 hour operation, treatment of fibrous vascular proliferating membrane): all of the bleedings did not give preretinal clotting mass | intraoperative iatrogenic tear (during treatment of fibrous vascular proliferating membrane, argatroban 10 mg drip infusion): no intraoperative iatrogenic tear was caused
